{
  "source": "patent US12356984B2",
  "about": "“Paraquat formulation” (priority 2018, dated 2025)",
  "experiment": "Compatibility (precipitation) of polyvinylalcohol-acetate copolymer with charged active ingredients",
  "format": "physicochemical",
  "details": "for Behaviour of polyvinylalcohol when formulated with the charged active ingredient: oil in water emulsion / solution of the active ingredient; for Formulability as oil-in-water emulsion (EW): Mowiol 4-88/SPAN 40 and TWEEN 40 system",
  "text": "One of the challenges faced when formulating pesticidal compositions is the compatibility of active ingredients with additional formulation ingredients, such as surfactants. This is especially a challenge when the active ingredient is highly charged.",
  "data": [
    {"compound": "CP(=O)(O)CCC(N)C(=O)O.N", "note": "(stereo not shown) [Ammonium glufosinate]", "values": [
      {"measurement": "Quantity at the maximum ratio of Mowiol 4-88 to glufosinate and water at which the copolymer does not precipitate", "setting": "ammonium glufosinate / Mowiol 4-88 (20% w/w in water) / water 90.15% w/w", "result": 8.49, "unit": "% w/w"}
    ]},
    {"compound": "C[n+]1ccc(-c2cc[n+](C)cc2)cc1", "note": "[paraquat]", "values": [
      {"measurement": "Behaviour of polyvinylalcohol when formulated with the charged active ingredient", "result": "readily dissolves"}
    ]},
    {"compound": "O=C(O)CNCP(=O)([O-])O.[K+]", "note": "[Potassium glyphosate]", "values": [
      {"measurement": "Quantity at the maximum ratio of Mowiol 4-88 to glyphosate and water at which the copolymer does not precipitate", "setting": "potassium glyphosate / Mowiol 4-88 (20% w/w in water) / water 93.48% w/w", "result": 5.76, "unit": "% w/w"}
    ]},
    {"compound": "CP(=O)(O)CCC(N)C(=O)O", "note": "(stereo not shown) [glufosinate]", "values": [
      {"measurement": "Formulability as oil-in-water emulsion (EW)", "result": "cannot be formulated as an oil-in-water emulsion (EW) at a commercially acceptable concentration"},
      {"measurement": "Behaviour of polyvinylalcohol when formulated with the charged active ingredient", "result": "precipitates out of solution"}
    ]},
    {"compound": "O=C(O)CNCP(=O)(O)O", "note": "[glyphosate]", "values": [
      {"measurement": "Formulability as oil-in-water emulsion (EW)", "result": "cannot be formulated as an EW at a commercially acceptable concentration"},
      {"measurement": "Behaviour of polyvinylalcohol when formulated with the charged active ingredient", "result": "precipitates out of solution"}
    ]}
  ]
}
